Here are results for 2 compounds from patent US20230123601A1, “PHARMACEUTICAL COMBINATION OF ANTIVIRAL AGENTS TARGETING HBV AND/OR AN IMMUNE MODULATOR FOR TREATMENT OF HBV” (priority 2019, published 2023).

The test system of data set [1] is HBV Genotype A S ORF target sites fused to reporter gene. Kind of data set: psiCHECK-2 dual-luciferase reporter mismatch assay in HeLa cells. Format: cell-based. The source says: A psiCHECK-2 dual-luciferase reporter system was utilized to evaluate the effects of a mismatch at a selected position in each of HBV-217, HBV-219, HBV-254, HBV-255, and HBV-258. The psiCHECK vector enables monitoring of changes in expression of a target gene fused to a reporter gene, where active RNAi degrades the fusion construct to produce a corresponding decrease in reporter signal. The diagram in FIG. 16 generically depicts the vector utilized in these assays. The parent partial reporter sequence contained 120 base-pair fragments from Genotype A (GenBank: AM282986.1) around target sites of interest in the S ORF. […]
The psiCHECK2 reporter assays with each oligonucleotide were conducted over a three-day period using a 6-point, 5-fold serial dilution starting at 1 nM transfected in HeLa cells. […] The cells were then incubated at 37° C. in a CO2 incubator until the cells were ready to harvest and assay for the target gene. On day 3, 100 μL of Dual-Glo Reagent was added to each well, mixed and incubated for 10 minutes before reading the luminescence. A further 100 μL of Dual-Glo Stop & Glo was added to each well, mixed and incubated for 10 minutes before reading the luminescence. […] The EC50s values determined for each oligonucleotide are shown in Table 15 with additional specifications.
In general terms: In a reporter assay the amount or activity of a reporter protein is the signal.

Data set [2] has as its system HBV. Kind of data set: HBsAg levels in HDI-mice after subcutaneous oligonucleotide. The class given is in vivo.
Source text: HBsAg levels were monitored in both oligonucleotide treated and untreated control mice for a period spanning 147 days.
In data set [3] the test system is HBV. The class given is in vivo. To be noted: HDI mice; for circulating HBsAg / hepatic viral RNAs: entecavir 500 ng/kg PO daily for 14 days alone. The method, then:
The RNAi oligonucleotides targeting the S antigen impact both the viral polymerase and HBsAg protein. In this study, the combinational effects of HBV(s)-219P2 as a monotherapy and combinational treatment with entecavir was explored in an HBV-expressing mouse (HDI model) for antiviral activity.
Mice were administered daily oral dosing of 500 ng/kg Entecavir (ETV) for 14 days. A single subcutaneous administration of HBV(s)-219P2 took place. Circulating viral load (HBV DNA) was measured by qPCR (FIG. 25A), plasma HBsAg level was measured by ELISA (FIG. 25B), and liver HBV mRNA and pgRNA levels were measured by qPCR.

Where two headings read alike, the source gives them in different places. Strand notation (5' to 3'): a small letter for the sugar, then the base; units joined by * are phosphorothioate-linked, units joined directly phosphodiester-linked; [ ] holds rarer units or linkages, { } end groups; capitals alone tell only the bases. {MOP} = methoxy, phosphonate-4'-oxy on the 2'-O-methyluridine at position 1; m = 2'-O-methyl; f = 2'-fluoro

Regarding “HBV-254: HBsAg-targeting duplex oligonucleotide, sense SEQ ID NO: 55, antisense SEQ ID NO: 56 (sense GUGGUGGACUUCUCUCAAUAGCAGCCGAAAGGCUGC; antisense {MOP}-mU*fA*fU*mUfGmAfGfAmGfAmAfGmUfCmCfAmCmCfAmC*mG*mG; sense: chemistry not given here; tetraloop form)”, the EC50 in data set [1] (mismatch duplex, single mismatch to reporter plasmid, read-out: MM EC50s) came to 0.096 nM; in data set [1] (parent duplex, 100% homology to reporter plasmid, read-out: Parent EC50s) it was 0.037 nM. The HBsAg levels result is listed as “systematically reduced HBsAg levels in mice with increasing dosage” in the data set on HBV [2] (HDI-mice, single subcutaneous dose evaluation) and “Diminished HBsAg levels persisted in treated mice throughout the entirety of the study” in the data set with HBV [2] (mice, QW×3, 3 mg/kg subcutaneous, monitored 147 days).

Consider `C=C1[C@H](CO)[C@@H](O)C[C@@H]1n1cnc2c(=O)[nH]c(N)nc21` [Entecavir], for which the “mean decrease in HBV DNA detected in plasma relative to PBS” value with HBV [3] (entecavir 500 ng/kg PO daily for 14 days) was approximately 1.6 log. In the data set with HBV [3], the “circulating HBsAg” value is “no efficacy” and the “hepatic viral RNAs” value is “no efficacy”. For the same compound, in the data set on HBV [3] (listed as entecavir), the “circulating HBsAg” value is listed as “No significant decrease” and the “hepatic viral RNAs” value is on record as “No significant decrease”.
